Assay results: patent US20050208468A1, “Assays with primary cells” (priority 2003, published 2005)

Key:
PPARγ = PPARγ activity assay based on PEPCK expression, coded carriers in a shared fluid volume; type: cell-based, human; settings: four donor samples in a shared fluid volume; four days; FIG. 12
From the text: This differentiation may be visualized readily and scored by staining lipid droplets that accumulate in the cytoplasm of the adipocytes during and/or after their differentiation. Furthermore, this adipocyte differentiation and/or activation of PPARγ may be followed by measuring the expression levels (RNA and/or protein) of PPARγ target genes (direct or indirect targets), such as PEPCK (phosphoenolpyruvate carboxykinsae) and/or FABP4 (fatty acid binding protein 4), among others.
Staining was via indirect immunofluorescence. Cells were counterstained with a nuclear dye (Hoechst) for data normalization, here and in other assays. […] Each sample of primary cells corresponds to pre-adipocytes isolated from visceral tissue (samples starting with the letter “V”) or isolated from subcutaneous tissue (samples starting with the letters “SC”) and were supplied by Cambrex. […] Each sample was connected to a distinct class of coded carriers (having a distinct code) to permit identification of the sample after combining the different classes of carrier and samples in a shared volume. […] Lipid accumulation and PEPCK expression were then measured with the samples still disposed in the same microplate wells. […]

[1] = system: primary human renal proximal tubule epithelial (HRPTE) cells; test: proliferative response (S-phase index) of primary HRPTE cells; type: cell-based; settings: HRPTE cells in 96-well microplate wells or on coded carriers; various concentrations; FIG. 6
Experimental: This example describes how multiplexed analysis using coded carriers may be used to assay the effects of camptothecin on the proliferative response of primary human renal proximal tubule epithelial (HRPTE) cells, in accordance with aspects of the present teachings; see FIG. 6.
Specifically, HRPTE cells are grown directly in wells of a standard 96-well microplate, to three different cell densities (indicated as the stated number of cells), or on coded carriers that optionally may be placed in wells of the microplate. An “S-phase index” (e.g., the fraction of cells in the S-phase of the cell cycle) is used as a measure of cell proliferation. […] This reduction may be particularly significant in assays on primary cells, because primary cells typically are difficult to obtain and maintain.

HRPTE cells = test: cytotoxicity response (death index, live/dead assay) of HRPTE cells; type: cell-based, human; settings: HRPTE cells in 96-well microplate wells or on coded carriers; various concentrations; FIG. 7
Experimental: This example describes how multiplexed analysis using coded carriers may be used to study the cytotoxicity response of HRPTE cells to staurosporine, in accordance with aspects of the present teachings; see FIG. 7.
Specifically, HRPTE cells are grown directly attached to wells of a standard 96-well microplate, or on coded carriers that optionally may be placed in wells of the microplate. A “death index” (e.g., the fraction of observed cells that are dead) may be used as a measure of cytotoxicity. The death index may be computed using any suitable mechanism, such as a fluorescence-based “live/dead assay.” In an exemplary version of the assay, live cells are labeled green using a membrane-permeant calcein AM, which is cleaved by esterases in live cells to yield cytoplasmic green fluorescence, and dead cells are labeled red using a membrane-impermeant ethidium homodimer-1, which passes through the compromised membranes of dead cells to label nucleic acids with red fluorescence. […] This reduction may be particularly significant in assays on primary cells, because primary cells typically are difficult to obtain and maintain.

SMILES: COc1ccc2c(c1)c(CC(=O)O)c(C)n2C(=O)c1ccc(Cl)cc1 [Indomethacin, indomethacin]
- induction of PEPCK expression as a measure of PPARγ activity (PPARγ): relatively strong induction

SMILES: CC[C@@]1(O)C(=O)OCc2c1cc1n(c2=O)Cc2cc3ccccc3nc2-1 [camptothecin]
- S-phase index (measure of cell proliferation) [1]: S-phase index generally decreases with increasing camptothecin concentration

SMILES: CN[C@@H]1C[C@H]2O[C@@](C)([C@@H]1OC)n1c3ccccc3c3c4c(c5c6ccccc6n2c5c31)C(=O)NC4 [staurosporine]
- death index (fraction of dead cells) (HRPTE cells): generally increases with increasing staurosporine concentration
